Common to all, as to experiment: Kinase selectivity, P33-radiolabeled assay
Holding throughout (assay type): biochemical
What all share (details): 10 μM ATP

One assay addresses T1, CAMKK2 (Homo sapiens, UniProt Q96RR4).
T1 construct: purchased Reaction Biology Corp
The procedure, abridged: (§1)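 Activity relative to DMSO controls (%) was measured for compound at 10 μM. Assays ran at 10 μM ATP, in duplicate.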

The target of a further assay is T2, DDR1 (Homo sapiens, UniProt Q08345).
T2 construct: purchased Reaction Biology Corp
The gist of the method: as §1

For another assay, the target named is T3, EPHA8 (Homo sapiens, UniProt P29322).
T3 construct: purchased Reaction Biology Corp
T3 sequence (P29322 28-1005): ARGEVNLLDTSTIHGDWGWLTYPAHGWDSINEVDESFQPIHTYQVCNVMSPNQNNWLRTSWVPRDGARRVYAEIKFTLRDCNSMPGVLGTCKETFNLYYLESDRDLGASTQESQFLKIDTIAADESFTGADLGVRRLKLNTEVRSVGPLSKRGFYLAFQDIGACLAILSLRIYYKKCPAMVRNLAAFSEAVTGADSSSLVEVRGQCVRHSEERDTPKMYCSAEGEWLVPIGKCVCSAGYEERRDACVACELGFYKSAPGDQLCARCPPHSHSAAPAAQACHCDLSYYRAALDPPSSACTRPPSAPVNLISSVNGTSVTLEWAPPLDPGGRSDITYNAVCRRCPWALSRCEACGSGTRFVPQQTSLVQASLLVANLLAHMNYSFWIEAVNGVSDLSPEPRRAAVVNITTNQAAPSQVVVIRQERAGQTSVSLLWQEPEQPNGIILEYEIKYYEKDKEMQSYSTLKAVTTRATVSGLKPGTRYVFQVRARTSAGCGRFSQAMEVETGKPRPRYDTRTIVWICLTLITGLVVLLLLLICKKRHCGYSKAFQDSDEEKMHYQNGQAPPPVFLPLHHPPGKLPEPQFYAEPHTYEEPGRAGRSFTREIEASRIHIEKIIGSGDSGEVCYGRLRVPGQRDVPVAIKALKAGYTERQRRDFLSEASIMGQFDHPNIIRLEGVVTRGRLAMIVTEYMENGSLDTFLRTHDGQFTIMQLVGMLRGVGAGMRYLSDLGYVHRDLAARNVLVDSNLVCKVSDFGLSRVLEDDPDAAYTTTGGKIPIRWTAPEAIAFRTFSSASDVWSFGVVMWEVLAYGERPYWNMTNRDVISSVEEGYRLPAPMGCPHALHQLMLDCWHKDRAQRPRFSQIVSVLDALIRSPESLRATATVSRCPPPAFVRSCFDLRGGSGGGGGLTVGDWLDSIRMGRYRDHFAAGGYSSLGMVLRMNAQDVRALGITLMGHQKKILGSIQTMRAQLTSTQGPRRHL
The procedure, abridged: as §1

The target of another assay is T4, RAF1 (Homo sapiens, UniProt P04049).
T4 construct: purchased Reaction Biology Corp
The gist of the method: as §1

A further assay deals with T5, ROCK2 (Homo sapiens, UniProt O75116).
T5 construct: purchased Reaction Biology Corp
The procedure, abridged: as §1

The next assay has as its target T6, SNARK/NUAK2 (Homo sapiens, UniProt Q9H093).
T6 construct: purchased Reaction Biology Corp
T6 sequence (Q9H093 1-628): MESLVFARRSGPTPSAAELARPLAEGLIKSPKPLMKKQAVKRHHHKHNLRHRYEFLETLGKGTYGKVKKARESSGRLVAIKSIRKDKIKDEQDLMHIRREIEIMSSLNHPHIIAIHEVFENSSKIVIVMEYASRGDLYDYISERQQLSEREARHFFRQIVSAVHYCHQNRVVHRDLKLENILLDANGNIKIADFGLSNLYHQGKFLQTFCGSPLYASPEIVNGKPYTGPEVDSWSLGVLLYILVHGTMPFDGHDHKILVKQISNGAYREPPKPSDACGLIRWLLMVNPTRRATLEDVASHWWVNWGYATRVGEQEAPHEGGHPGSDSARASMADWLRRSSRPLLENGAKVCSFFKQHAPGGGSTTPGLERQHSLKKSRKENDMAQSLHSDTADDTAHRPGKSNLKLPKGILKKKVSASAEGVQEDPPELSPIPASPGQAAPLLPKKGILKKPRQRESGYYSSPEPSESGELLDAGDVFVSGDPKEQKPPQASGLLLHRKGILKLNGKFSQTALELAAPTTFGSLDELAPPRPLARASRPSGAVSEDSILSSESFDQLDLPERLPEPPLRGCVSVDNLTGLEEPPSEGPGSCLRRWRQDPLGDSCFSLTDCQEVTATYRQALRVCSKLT
The procedure, abridged:
as §1

[1] abbreviates: read-out: % Enzyme Activity (relative to DMSO controls) AVG.
Setting [2] is: read-out: % Enzyme Activity (relative to DMSO controls) Data 1.
[3] abbreviates: read-out: % Enzyme Activity (relative to DMSO controls) Data 2.

Where two headings read alike, the source gives them in different places.

T4 sequence (P04049 whole entry): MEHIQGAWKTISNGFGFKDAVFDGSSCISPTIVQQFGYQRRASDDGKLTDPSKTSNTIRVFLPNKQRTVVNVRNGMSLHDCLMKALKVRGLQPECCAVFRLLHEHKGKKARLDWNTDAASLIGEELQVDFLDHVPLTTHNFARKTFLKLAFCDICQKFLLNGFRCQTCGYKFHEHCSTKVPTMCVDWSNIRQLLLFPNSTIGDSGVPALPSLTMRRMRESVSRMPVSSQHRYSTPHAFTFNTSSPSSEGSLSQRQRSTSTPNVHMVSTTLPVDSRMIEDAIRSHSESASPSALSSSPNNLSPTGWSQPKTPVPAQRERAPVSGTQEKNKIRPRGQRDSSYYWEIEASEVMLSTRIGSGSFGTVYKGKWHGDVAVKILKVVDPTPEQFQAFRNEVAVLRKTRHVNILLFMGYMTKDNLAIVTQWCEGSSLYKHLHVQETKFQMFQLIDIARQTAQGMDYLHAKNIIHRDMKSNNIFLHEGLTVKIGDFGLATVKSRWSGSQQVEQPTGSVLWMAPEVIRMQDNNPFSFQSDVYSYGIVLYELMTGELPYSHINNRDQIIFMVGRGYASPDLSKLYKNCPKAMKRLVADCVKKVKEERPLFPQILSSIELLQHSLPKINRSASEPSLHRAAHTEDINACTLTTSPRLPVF
T5 sequence (O75116 whole entry): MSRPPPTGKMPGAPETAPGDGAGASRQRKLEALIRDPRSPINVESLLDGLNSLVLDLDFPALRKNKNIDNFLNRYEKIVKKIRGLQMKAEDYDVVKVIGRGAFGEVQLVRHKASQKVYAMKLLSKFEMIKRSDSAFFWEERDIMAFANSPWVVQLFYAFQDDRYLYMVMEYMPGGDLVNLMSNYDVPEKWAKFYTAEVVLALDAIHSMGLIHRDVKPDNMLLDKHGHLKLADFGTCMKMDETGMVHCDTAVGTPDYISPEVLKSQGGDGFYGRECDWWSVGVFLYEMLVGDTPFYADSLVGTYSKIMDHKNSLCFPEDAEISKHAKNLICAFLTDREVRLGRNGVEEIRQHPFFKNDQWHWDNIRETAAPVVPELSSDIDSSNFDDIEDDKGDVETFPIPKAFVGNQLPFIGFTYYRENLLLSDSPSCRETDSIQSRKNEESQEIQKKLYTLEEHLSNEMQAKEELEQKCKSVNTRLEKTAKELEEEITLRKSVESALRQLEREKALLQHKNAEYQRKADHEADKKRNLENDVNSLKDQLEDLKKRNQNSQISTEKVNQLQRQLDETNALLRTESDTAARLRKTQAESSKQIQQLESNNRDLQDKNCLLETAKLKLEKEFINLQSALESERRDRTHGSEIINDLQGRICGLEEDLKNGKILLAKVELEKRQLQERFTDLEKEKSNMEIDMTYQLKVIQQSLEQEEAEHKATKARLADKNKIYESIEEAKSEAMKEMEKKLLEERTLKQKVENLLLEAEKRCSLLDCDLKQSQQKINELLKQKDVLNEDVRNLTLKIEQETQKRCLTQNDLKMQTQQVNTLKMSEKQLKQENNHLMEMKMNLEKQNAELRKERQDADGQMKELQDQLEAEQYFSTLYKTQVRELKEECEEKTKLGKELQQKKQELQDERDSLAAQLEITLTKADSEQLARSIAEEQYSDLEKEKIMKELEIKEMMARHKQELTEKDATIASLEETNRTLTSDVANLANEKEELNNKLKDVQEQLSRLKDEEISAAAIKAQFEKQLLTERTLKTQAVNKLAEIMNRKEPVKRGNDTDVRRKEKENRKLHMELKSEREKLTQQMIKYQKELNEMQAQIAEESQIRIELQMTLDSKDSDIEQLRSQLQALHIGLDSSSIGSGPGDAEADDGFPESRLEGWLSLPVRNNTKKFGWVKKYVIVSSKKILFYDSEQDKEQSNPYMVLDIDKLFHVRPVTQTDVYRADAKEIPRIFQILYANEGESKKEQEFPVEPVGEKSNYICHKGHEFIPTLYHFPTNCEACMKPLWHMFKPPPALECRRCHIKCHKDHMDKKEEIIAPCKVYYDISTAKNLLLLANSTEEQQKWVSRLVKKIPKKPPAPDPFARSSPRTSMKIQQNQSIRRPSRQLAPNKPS
T1 sequence (Q96RR4 whole entry): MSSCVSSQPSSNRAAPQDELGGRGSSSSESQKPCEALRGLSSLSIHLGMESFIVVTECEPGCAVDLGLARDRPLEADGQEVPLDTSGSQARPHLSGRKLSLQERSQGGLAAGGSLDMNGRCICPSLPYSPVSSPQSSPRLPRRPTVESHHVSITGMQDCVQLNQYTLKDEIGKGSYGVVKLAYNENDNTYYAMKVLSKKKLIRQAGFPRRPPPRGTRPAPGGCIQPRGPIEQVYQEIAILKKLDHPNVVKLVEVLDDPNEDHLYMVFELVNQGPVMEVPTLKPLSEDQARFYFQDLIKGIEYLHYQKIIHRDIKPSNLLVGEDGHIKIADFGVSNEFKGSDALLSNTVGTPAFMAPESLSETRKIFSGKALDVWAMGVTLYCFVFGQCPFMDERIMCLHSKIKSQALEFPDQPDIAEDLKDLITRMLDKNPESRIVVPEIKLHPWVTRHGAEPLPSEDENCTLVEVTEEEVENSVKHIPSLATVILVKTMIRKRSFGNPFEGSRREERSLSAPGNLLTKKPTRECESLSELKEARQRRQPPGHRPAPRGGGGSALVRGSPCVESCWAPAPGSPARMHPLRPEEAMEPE
T2 sequence (Q08345 19-913): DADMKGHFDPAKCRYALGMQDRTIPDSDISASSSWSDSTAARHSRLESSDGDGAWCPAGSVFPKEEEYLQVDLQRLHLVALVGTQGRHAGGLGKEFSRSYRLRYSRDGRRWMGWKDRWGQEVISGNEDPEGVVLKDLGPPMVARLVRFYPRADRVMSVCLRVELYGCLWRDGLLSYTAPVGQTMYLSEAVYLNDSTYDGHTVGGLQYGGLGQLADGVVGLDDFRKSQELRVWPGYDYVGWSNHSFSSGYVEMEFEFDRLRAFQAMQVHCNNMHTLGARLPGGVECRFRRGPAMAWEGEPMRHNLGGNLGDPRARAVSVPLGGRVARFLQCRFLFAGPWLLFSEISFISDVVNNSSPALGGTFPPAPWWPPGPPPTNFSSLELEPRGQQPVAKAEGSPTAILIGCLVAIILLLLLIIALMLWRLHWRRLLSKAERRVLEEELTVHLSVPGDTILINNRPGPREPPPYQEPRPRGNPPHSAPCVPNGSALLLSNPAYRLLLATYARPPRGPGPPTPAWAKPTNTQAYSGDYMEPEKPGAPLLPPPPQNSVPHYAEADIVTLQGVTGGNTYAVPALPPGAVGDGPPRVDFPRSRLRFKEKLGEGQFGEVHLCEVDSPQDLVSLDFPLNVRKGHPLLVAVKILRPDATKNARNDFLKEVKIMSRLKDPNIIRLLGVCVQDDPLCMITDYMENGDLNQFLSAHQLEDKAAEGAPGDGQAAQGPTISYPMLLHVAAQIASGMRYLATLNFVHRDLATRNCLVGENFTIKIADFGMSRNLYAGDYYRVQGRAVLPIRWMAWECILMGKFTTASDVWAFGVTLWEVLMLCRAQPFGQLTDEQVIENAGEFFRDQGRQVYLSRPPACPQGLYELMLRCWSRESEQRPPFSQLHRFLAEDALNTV

Turning to `CC(C)(C)C(=O)N1N=CC[C@H]1c1ccccc1` [GSK′963], the remaining activity at 10 µM at CAMKK2 (setting [1]) was 83%; at CAMKK2 (setting [2]), 86.1%; at CAMKK2 (setting [3]) it was 80%; on DDR1 (setting [1]), 96%; at DDR1 (setting [2]) it was 94%; at DDR1 (setting [3]), 97.9%. The remaining activity at 10 µM on EPHA8 (setting [1]) was found to be 96.6%; at EPHA8 (setting [2]), 97.5%; on EPHA8 (setting [3]), 95.7%; at RAF1 (setting [1]) it was 93.7%; at RAF1 (setting [2]), 94.8%; at RAF1 (setting [3]) it was 92.7%. The remaining activity at 10 µM amounted to 98% at ROCK2 (setting [1]); 99% on ROCK2 (setting [2]); 97.1% on ROCK2 (setting [3]); 99.1% at SNARK/NUAK2 (setting [1]); 99.2% on SNARK/NUAK2 (setting [2]); 99% on SNARK/NUAK2 (setting [3]).

These data come from publication PMC4979471 (Cell Death Discovery, 2015).
